Three compounds from patent US20240254199A1, “MODIFIED MAMMALIAN CELLS” (Genentech, Inc., priority 2021, published 2024) can be followed below.

Assay type in all cases: cell-based, Chinese hamster
Assay [1] deals with empty host CHO-K1 cells. Description: Seed train growth of empty host CHO-K1 cells with PDGFRa inhibitor and/or insulin. On the procedure: 1.5 million cells were lysed in 1× NP40 buffer (10 mM Tris, pH 8.0, 0.5% NP40, 150 mM NaCl, 10 mM DTT and 5 mM MgCl2) containing protease inhibitor cocktails (Roche EDTA free mini-tablets cocktail) for 20 min on ice. Lysates were subjected to sodium dodecyl sulfate-polyacrylamide gel electrophoresis (SDS-PAGE) (4-12% Tris glycine) and transferred to nitrocellulose membrane. After blocking with 5% milk in tris-buffered saline (TBS)-0.1% Tween buffer, the membranes were blotted with respective antibodies. Blots were visualized using HRP-conjugated anti-rabbit anti-body and SuperSignal West Dura Extended Duration Substrate. The following inhibitors were used: ATF6i (10 μM Ceapin-A7 (Gallagher, et al., 2016)), PERKi (10 μM Compound 39 (Axten, et al., 2012)), IRE1i6 (10 μM 4u8c (Cross, et al., 2012)), IRE1i9 (10 μM in-house/Genentech), PDGFRi (5-20 μM Abcam, AG-1296). The following antibodies were used: anti-PDGFRa (Cell Signaling Technology (CST), D1E1E), rabbit anti-BiP (C50B12, Cell Signaling Technology, 3177), rabbit anti-PERK (CST, C33E10), mouse anti-o-actin-HRP (AC-15) (Abcam, ab49900), rabbit anti-phospho-Akt (Ser473) (CST, D9E), rabbit anti-Akt (CST, 5G3), rabbit cleaved caspase3 (CST, asp175), goat anti-human IgG-HRP (MP Biomedicals, 0855252), rabbit IRE1a (CST, 14C10), mouse anti-phospho-IRE1, mouse anti-XBP1, rabbit anti-Bax (Abcam, ab32503), rabbit anti-Bak (CST, D4E4), donkey anti-rabbit HRP (Jackson ImmunoResearch Laboratories, Inc., 711-035-152), rabbit anti-sod2 (CST, D3×8F)
(§1) It was previously shown that UPR-induced poor growth profiles correlated with a decrease in PDGFRa levels (FIGS. 19A and 19B) (Tung, et al., 2018). PDGFRa and insulin signaling pathways have overlapping downstream targets (FIG. 21A), however insulin signaling negatively regulates PDGFRa signaling (Cirri, et al., 2005). […]

Assay [2] relates to mAb2-expressing CHO-K1 cells. Description: Fed-batch production of mAb2-expressing CHO cell line with PDGFRa inhibitor and/or insulin. As to conditions: added on Day 3 of fed-batch production. On the procedure:
Fed-batch production cultures were performed as disclosed here and below in Example 2, with proprietary chemically defined medium using different vessels (e.g., tube-spin and AMBR15) along with bolus feeds on Days 3, 7 and 10 as previously mentioned (Hsu, Aulakh, Traul, & Yuk, 2012). Anti-cell aggregation agent was used in all cultures during production assay to prevent cell aggregation due to the release of DNA from dying cells. Cells were seeded at low (1-2×10^6 cells/mL) or high (10×10^6 cells/mL) seeding densities using lean or rich production media. Cultures were temperature shifted from 37° C. to 35° C. on Day 3. Titers were determined using Protein-A affinity chromatography with UV detection. Percent viability and viable cell count were determined using a Vi-Cell XR instrument (Beckman Coulter Item #383721).
as §1

Assay [3] concerns PDGFRa. Description: PDGFRa protein (western blot) and mRNA (qPCR) levels upon chemical UPR induction. The settings on record: seed train, mAb1-expressing CHO DG44 and CHO-K1, optimal pH. On the procedure: 1.5 million cells were lysed in 1× NP40 buffer (10 mM Tris, pH 8.0, 0.5% NP40, 150 mM NaCl, 10 mM DTT and 5 mM MgCl2) containing protease inhibitor cocktails (Roche EDTA free mini-tablets cocktail) for 20 min on ice. Lysates were subjected to sodium dodecyl sulfate-polyacrylamide gel electrophoresis (SDS-PAGE) (4-12% Tris glycine) and transferred to nitrocellulose membrane. After blocking with 5% milk in tris-buffered saline (TBS)-0.1% Tween buffer, the membranes were blotted with respective antibodies. Blots were visualized using HRP-conjugated anti-rabbit anti-body and SuperSignal West Dura Extended Duration Substrate. The following inhibitors were used: ATF6i (10 μM Ceapin-A7 (Gallagher, et al., 2016)), PERKi (10 μM Compound 39 (Axten, et al., 2012)), IRE1i6 (10 μM 4u8c (Cross, et al., 2012)), IRE1i9 (10 μM in-house/Genentech), PDGFRi (5-20 μM Abcam, AG-1296). […]
An interesting phenomenon was previously described where activation of UPR in seed train culture, triggered by lower pH conditions in a particular CHO cell line, negatively affected culture growth in production media at target pH (Tung, et al., 2018). When exposed to low pH conditions, high intracellular BiP levels were detected in this cell line that correlated to low growth profiles during production and poor bioprocess outcomes (Tung, et al., 2018). […]

Regarding `COc1cc2ncc(-c3ccccc3)nc2cc1OC` [PDGFRa inhibitor, AG-1296], the “reduction of cell growth” value in assay [1] (20 μM, empty host CHO-K1 cells, seed train media, 4 days) is reported as “approximately 50%”. Moreover, the “cell growth and viability in fed-batch production” value in assay [2] was “significantly decreased cell growth, without affecting cell viability”.
For Tunicamycin, the “PDGFRa levels (protein and mRNA)” value in assay [3] was “reduced at both the protein and mRNA levels”.
On to insulin, for which the Akt phosphorylation entry in assay [1] (insulin added to cultures with PDGFRa inhibitor, western blot) was “increased Akt phosphorylation”. The “cellular growth of cultures treated with the PDGFRa inhibitor” value in assay [1] (insulin added to seed train cultures with PDGFRa inhibitor) is listed as “partially rescued cellular growth”. In addition, the “cell growth and viability in fed-batch production” value in assay [2] was “partially rescued the observed cell growth inhibition”.
